The record followed here is patent publication US4902712A, “Fluoroalkane derivatives” (Imperial Chemical Industries plc, priority 1985, dated 1990).

The test system of assay [1] is TXA2. As to the kind of experiment: TXA2 antagonist properties (general statement, standard tests). The settings on record: in words. From the text:
(§1) As stated earlier, the compound of formula I is an antagonist of one or more of the actions of TXA2, for example certain of its actions on blood platelets, the vasculature and/or the lung.

Assay [2] relates to TXA2. As to the kind of experiment: Test (a): rabbit aortal strip model (Piper and Vane). Type of assay: cell-based. The conditions noted are these: agonist TXA2 or U46619. The method, then: as §1
(a) The rabbit aortal strip model devised by Piper and Vane (Nature, 1969, 223, 29-35) using as agonist a freshly prepared sample of TXA2, generated by addition of arachidonic acid (25 μg) to citrated, platelet rich rabbit plasma (250 μl) and allowing the mixture to aggregate fully over 90 seconds before use; alternatively the TXA2 mimetic agent known as U46619 (described by R. L. Jones et alia in "Chemistry, Biochemistry and Pharmacological Activity of Prostanoids" edited by S. M. Roberts and F. Scheinmann, at page 211; Pergamon Press, 1979) may be used as the agonist;

In assay [3] the target is T1, U46619 stimulated platelet aggregation (Homo sapiens, UniProt P21731).
T1 construct: aggregating human, citrated, platelet-rich plasma; endogenous in cells; host or cells: human platelets in citrated platelet-rich plasma
T1 sequence (P21731 1-343): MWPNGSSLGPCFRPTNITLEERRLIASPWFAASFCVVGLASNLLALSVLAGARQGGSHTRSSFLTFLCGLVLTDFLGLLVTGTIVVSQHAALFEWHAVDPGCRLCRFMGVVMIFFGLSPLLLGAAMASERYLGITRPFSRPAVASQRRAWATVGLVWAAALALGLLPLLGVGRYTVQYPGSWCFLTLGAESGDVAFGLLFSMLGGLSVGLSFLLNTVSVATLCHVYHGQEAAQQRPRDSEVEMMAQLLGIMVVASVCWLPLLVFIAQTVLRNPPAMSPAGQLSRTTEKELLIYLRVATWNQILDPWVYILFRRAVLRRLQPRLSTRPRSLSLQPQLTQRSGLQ
As to the kind of experiment: Test (b): blood platelet aggregation test (Born), human citrated platelet-rich plasma. The assay is classed as cell-based. The conditions noted are these: averaged over several concentrations. From the text:
(b) a blood platelet aggregation test based on that described by Born (Nature, 1962, 194, 927-929) and involving:
(i) aggregating human, citrated, platelet-rich plasma by addition of the TXA2 mimetic agent U46619 so that a dose-response curve is generated;
(ii) generating a dose-response curve for U46619 stimulated platelet aggregation in the presence of increasing amounts of test compound (generally in the range 10^-5 M to 10^-10 M); and
(iii) calculating a KB value indicating potency of TXA2 antagonism for the test compound, averaged over several concentrations, from the calculated 50% response value for U46619 aggregation in the presence and absence of test compound; and […]

Assay [4] relates to U46619 induced hypertension. As to the kind of experiment: Test (d): U46619 induced hypertension in anaesthetised rats. Type of assay: in vivo, rat (Alderley Park strain). The conditions noted are these: 1 hour after an oral dose of 0.05 mg/kg. The method, then: (d) Male rats (Alderley Park strain) are anaesthetised with sodium pentobarbital and blood pressure is monitored at the carotid artery. The TXA2 mimetic agent U46619 is administered intravenously at 5 μg/kg via the jugular vein to produce a 20-30 mm Hg (2640-3970 pascal) increase in systolic blood pressure. The procedure is repeated twice to establish reproducibility of the effect. A test compound is then administered either intravenously (via the jugular vein) or orally (via a cannula) directly into the stomach and the animal is challenged with U46619, five minutes after dosing with test compound and then successively every ten minutes until the hypertensive effect of U46619 is no longer blocked.

Assay [5] has as its system U46619 induced bronchoconstriction. As to the kind of experiment: Test (c): bronchoconstriction test, Konzett-Rossler anaesthetised guinea-pig model. The assay is classed as in vivo. The settings on record: 2 hours after oral dosing at 0.005 mg/kg; ratio of U46619 concentration required to cause 50% bronchoconstriction in presence and absence of test compound. From the text: (c) a bronchoconstriction test involving measuring the inhibition by a test compound of the bronchoconstriction induced in the Konzett-Rossler, anaesthetised guinea-pig model (as modified by Collier and James, Brit. J. Pharmacol., 1967, 30, 283-307) by intravenous administration of the TXA2 mimetic agent, U46619 and involving:
(i) obtaining a cumulative dose-response curve to U46619 induced bronchoconstriction by intravenous administration of constant volumes of increasing concentrations of U46619 (0.2-4 ug/kg) in physiological saline solution and expressing bronchoconstriction as the maximum of that theoretically obtainable with no air flow to the test animal;
(ii) generating a cumulative dose-response curve to U46619 induced bronchoconstriction at 30 minute intervals for 3 hours after oral dosing of test compound; and
(iii) calculating a dose-ratio for the test compound (that is the ratio of concentration of U46619 required to cause 50% bronchoconstriction in the presence and absence of test compound) indicating the potency of TXA2 antagonism.

Some results are limits rather than exact numbers.

On to `COc1ccccc1[C@H]1O[C@@H](C(F)(F)F)OC[C@H]1C/C=C\CCC(=O)O` (relative stereo) [4(Z)-6-([2,4,5-cis]-4-o-methoxyphenyl-2-trifluoromethyl-1,3-dioxan-5-yl)hexenoic acid], for which, in the assay on TXA2 [1], the TXA2 antagonist properties entry is “also possess TXA2 antagonist properties”.

For `O=C(O)CC/C=C\C[C@@H]1CO[C@H](C(F)(F)F)O[C@@H]1c1ccccc1O` (relative stereo) [compound of formula I, 4(Z)-6-([2,4,5-cis]-4-o-hydroxyphenyl-2-trifluoromethyl-1,3-dioxan-5-yl)hexenoic acid], the TXA2 antagonist properties result with TXA2 [1] was “unexpectedly superior TXA2 antagonist properties”. In the assay with TXA2 [2], the pA2 (usually a measure of antagonist potency on a negative log scale) is on record as 7.58±0.05. Besides, the Kb in assay [3] came out at 13.2 nM. Moreover, the “inhibition of U46619 induced hypertension” value in assay [4] is given as greater than 60%. In addition, in assay [5], the dose ratio is on record as greater than 40.

`O=C(O)CCC/C=C\C[C@@H]1CO[C@H](C(F)(F)F)O[C@@H]1c1ccccc1` (relative stereo) [5(Z)-7-([2,4,5-cis]-4-phenyl-2-trifluoromethyl-1,3-dioxan-5-yl)heptenoic acid, reference compound]: the TXA2 antagonist properties result in the assay with TXA2 [1] is listed as “significantly lower TXA2 antagonist properties”.
